Results on 23 molecules are retold here after US11325913B2, “Compounds and methods for the treatment of malaria” (THE BROAD INSTITUTE, INC., priority 2013, dated 2022).

The test system of this assay is P. falciparum Dd2. The assay is described as follows: Activity against the Dd2 strain of P. falciparum (SYBR Green I, 72 h). Conditions: Plasmodium falciparum, DD2, 72 h, P. falciparum Dd2, 72 h incubation. It is filed as cell-based. How it is done:
The Dd2 strain of P. falciparum was cultured in complete medium (RPMI with L-glutamine, 4.3% heat-inactivated O-positive human serum, 2.08 mg/ml albumax, 0.013 mg/ml hypoxanthine, 1.17 mg/ml glucose, 0.18% NaHCO3, 0.031 M Hepes, 2.60 mM NaOH, and 0.043 mg/ml gentamicin) until the parasitemia reached 3-8%. Parasitemia was determined by checking at least 500 red blood cells from a Giemsa-stained blood smear. The Dd2 cultures along with tested O-positive red blood cells were centrifuged at room temperature at 2,000 rpm for 5 minutes using an Eppendorf centrifuge 5810R with an A-4-81 rotor. The medium was aspirated off. For the compound screening, a parasite dilution at a 1% parasitemia and 1.0% hematocrit was created with screening medium (RPMI with L-glutamine, 4.16 mg/ml albumax II, 0.013 mg/ml hypoxanthine, 1.73 mg/ml glucose, 0.18% NaHCO3, 0.031 M Hepes, 2.60 mM NaOH, and 0.043 mg/ml gentamicin). The suspension was gassed with 93% nitrogen, 4% carbon dioxide, and 3% oxygen and placed at 37° C. until needed. Using a liquid dispenser, 20 μl of screening medium was dispensed into 384-well, black, clear-bottom plates. With a PinTool, 100 nl of compounds dissolved in DMSO was transferred into the assay plates along with control compound (mefloquine). Next, 30 μl of the parasite suspension in screening medium was then dispensed into the assay plates such that the final parasitemia was 1% and the final hematocrit was 1.0%. Final concentration of DMSO was 0.125%. Mefloquine at a final concentration of 20 μM and DMSO at a final concentration of 0.125% were used within the assay plates to serve as background and baseline controls, respectively. The assay plates were transferred to incubators (93% nitrogen, 4% carbon dioxide, and 3% oxygen during the 72 h incubation at 37° C.). Ten microliters of detection reagent consisting of 10×SYBR Green I (Invitrogen; supplied in 10,000× concentration) in lysis buffer (20 mM Tris-HCl, 5 mM EDTA, 0.16% Saponin wt/vol, 1.6% Triton X vol/vol) was dispensed into the assay plates. For optimal staining, the assay plates were left at room temperature for 24 h in the dark. The assay plates were read by using an Envision (PerkinElmer) reader, with 505 dichroic mirrors with 485-nm excitation and 530-nm emission settings, and the plate reads were from the bottom.
By following the above-described protocol, the 50% effective concentration (EC50) for compounds 1-95 was measured against P. falciparum Dd2 and the results are shown in Table 2: […]
The term EC50 denotes the concentration needed to bring the measured effect to its halfway point. Low readings indicate higher potency in that assay, high ones lower potency in that assay. `COc1ccc(NC(=O)N2CCCCN3[C@@H](CO)[C@H](c4ccc(C#Cc5ccccn5)cc4)[C@@H]3C2)cc1` [Compound 25, (8R,9R,10R)-10-(hydroxymethyl)-N-(4-methoxyphenyl)-9-(4-(pyridin-2-ylethynyl)phenyl)-1,6-diazabicyclo[6.2.0] decane-6-carboxamide] registered an EC50 of 155 nM. In the case of `Cc1ccc(-c2ccc([C@@H]3[C@H](CO)N4CCCCN(S(=O)(=O)c5cccc(C)c5)C[C@@H]34)cc2)cc1` [Compound 26, ((8R,9S,10R)-9-(4′-methyl-[1,1′-biphenyl]-4-yl)-6-(m-tolylsulfonyl)-1,6-diazabicyclo[6.2.0]decan-10-yl)methanol], a half-maximal effect (EC50) was put at 955 nM. With `O=C(Nc1cccc(F)c1)N1CCCCN2[C@@H](CO)[C@H](c3ccc(C#Cc4cccnc4)cc3)[C@@H]2C1` [Compound 28, (8R,9R,10R)-N-(3-fluorophenyl)-10-(hydroxymethyl)-9-(4-(pyridin-3-ylethynyl)phenyl)-1,6-diazabicyclo[6.2.0] decane-6-carboxamide] the figure was 368 nM; with `COc1ccc(C#Cc2ccc([C@@H]3[C@H](CO)N4CCCCN(C(=O)Nc5ccccc5F)C[C@@H]34)cc2)cc1` [Compound 29, (8R,9S,10R)-N-(2-fluorophenyl)-10-(hydroxymethyl)-9-(4-((4-methoxyphenyl)ethynyl)phenyl)-1,6-diazabicyclo[6.2.0] decane-6-carboxamide], 898 nM. The value for `O=C(Nc1ccccc1)N1CCCCN2[C@H](CO)[C@H](c3ccc(C#Cc4ccccc4)cc3)[C@@H]2C1` [Compound 30, (8R,9R,10S)-10-(hydroxymethyl)-N-phenyl-9-(4-(phenylethynyl)phenyl)-1,6-diazabicyclo[6.2.0] decane-6-carboxamide] was 42 nM; that for `COc1ccc(NC(=O)N2CCCCN3[C@H](CO)C(c4ccccc4)[C@@H]3C2)cc1` (stereo partly drawn) [Compound 31, (8R,10S)-10-(hydroxymethyl)-N-(4-methoxyphenyl)-9-phenyl-1,6-diazabicyclo[6.2.0] decane-6-carboxamide] was 1820 nM; that for `COc1ccc(NC(=O)N2CCCCN3[C@H](CN4CCN(C)CC4)[C@H](c4ccc(C#Cc5ccccc5)cc4)[C@@H]3C2)cc1` [Compound 32, (8R,9S,10S)-N-(4-methoxyphenyl)-10-[(4-methylpiperazin-1-yl)methyl]-9-[4-(2-phenylethynyl)phenyl]-1,6-diazabicyclo[6.2.0] decane-6-carboxamide] was 158 nM. With `COc1ccc(NC(=O)N2CCCCN3[C@H](CN4CCC(C)(O)CC4)[C@H](c4ccc(C#Cc5ccccc5)cc4)[C@@H]3C2)cc1` [Compound 33, (8R,9S,10S)-10-[(4-hydroxy-4-methylpiperidin-1-yl)methyl]-N-(4-methoxyphenyl)-9-[4-(2-phenylethynyl)phenyl]-1,6-diazabicyclo[6.2.0] decane-6-carboxamide] the figure was 2320 nM. `COc1ccc(NC(=O)N2CCN3[C@H](CO)[C@H](c4ccc(C#Cc5ccccc5)cc4)[C@@H]3C2)cc1` [Compound 34, (6R,7R,8S)-8-(hydroxymethyl)-N-(4-methoxyphenyl)-7-[4-(2-phenylethynyl)phenyl]-1,4-diazabicyclo[4.2.0] octane-4-carboxamide] came in with an EC50 of 4660 nM. `COc1ccc(NC(=O)N2CCCCN3[C@H](COCC(=O)O)[C@H](c4ccc(C#Cc5ccccc5)cc4)[C@@H]3C2)cc1` [Compound 35, 2-{[(8R,9R,10S)-6-[(4-methoxyphenyl)carbamoyl]-9-[4-(2-phenylethynyl)phenyl]-1,6-diazabicyclo[6.2.0]decan-10-yl]methoxy}acetic acid]: the EC50 came out at 65 nM.

For `COc1ccc(C(=O)N2CCCCN3[C@H](CO)[C@H](c4ccc(C#Cc5ccccc5)cc4)[C@@H]3C2)cc1` [Compound 36, [(8R,9R,10S)-6-(4-methoxybenzoyl)-9-[4-(2-phenylethynyl)phenyl]-1,6-diazabicyclo[6.2.0]decan-10-yl]methanol], a half-maximal effect (EC50) was put at 7900 nM. With `COc1ccc(NC(=O)N2CCCCN3[C@H](CO)[C@H](c4ccc(C#Cc5cccc(F)c5)cc4)[C@@H]3C2)cc1` [Compound 38, (8R,9R,10S)-9-{4-[2-(3-fluorophenyl)ethynyl]phenyl}-10-(hydroxymethyl)-N-(4-methoxyphenyl)-1,6-diazabicyclo[6.2.0] decane-6-carboxamide] the figure was 15 nM. With `COc1ccc(NC(=O)N2CCCCN3[C@H](CO)[C@H](c4ccc(-c5csc(-c6ccccc6)n5)cc4)[C@@H]3C2)cc1` [Compound 39, (8R,9R,10S)-10-(hydroxymethyl)-N-(4-methoxyphenyl)-9-[4-(2-phenyl-1,3-thiazol-4-yl)phenyl]-1,6-diazabicyclo[6.2.0] decane-6-carboxamide] the figure was 5170 nM. With `COc1ccc(S(=O)(=O)N2CCCCN3[C@H](CO)[C@H](c4ccc(C#Cc5ccccc5)cc4)[C@@H]3C2)cc1` [Compound 40, [(8R,9R,10S)-6-(4-methoxybenzene-sulfonyl)-9-[4-(2-phenylethynyl)phenyl]-1,6-diazabicyclo[6.2.0]decan-10-yl]methanol] the figure was 5160 nM. Regarding `COc1ccc(NC(=O)N2CCCCN3[C@H](CO)[C@H](c4ccc(-c5ccccc5)cc4)[C@@H]3C2)cc1` [Compound 41, (8R,9R,10S)-10-(hydroxymethyl)-N-(4-methoxyphenyl)-9-(4-phenylphenyl)-1,6-diazabicyclo[6.2.0] decane-6-carboxamide], the EC50 was found to be 9830 nM.

The molecule `COc1ccc(NC(=O)N2CCCCN3[C@H](CO)[C@H](c4ccc(-c5ccc(F)cc5)cc4)[C@@H]3C2)cc1` [Compound 42, (8R,9R,10S)-9-[4-(4-fluorophenyl)phenyl]-10-(hydroxymethyl)-N-(4-methoxyphenyl)-1,6-diazabicyclo[6.2.0] decane-6-carboxamide] returned an EC50 of 9680 nM. Consider `COc1ccc(NC(=O)N2CCCCN3C[C@H](c4ccc(C#Cc5ccccn5)cc4)[C@@H]3C2)cc1` [Compound 43, (8R,9S)-N-(4-methoxyphenyl)-9-{4-[2-(pyridin-2-yl)ethynyl]phenyl}-1,6-diazabicyclo[6.2.0] decane-6-carboxamide], for which the EC50 is 229 nM. In turn, `O=C(NC1CCCCC1)N1CCCCN2[C@H](CO)[C@H](c3ccc(C#Cc4ccccc4)cc3)[C@@H]2C1` [Compound 44, (8R,9R,10S)-N-cyclohexyl-10-(hydroxymethyl)-9-[4-(2-phenylethynyl)phenyl]-1,6-diazabicyclo[6.2.0] decane-6-carboxamide] displayed a concentration giving a half-maximal response (EC50) of 1100 nM. `COc1ccc(NC(=O)N2CCCCN3[C@H](CO)[C@H](c4ccc(C#CC5CCCCC5)cc4)[C@@H]3C2)cc1` [Compound 45, (8R,9R,10S)-9-[4-(2-cyclohexylethynyl)phenyl]-10-(hydroxymethyl)-N-(4-methoxyphenyl)-1,6-diazabicyclo[6.2.0] decane-6-carboxamide] displayed an EC50 of 846 nM. The value for `COc1ccc(NC(=O)N2CCCCN3[C@H](CO)[C@H](c4ccc(-c5ccccc5F)cc4)[C@@H]3C2)cc1` [Compound 46, (8R,9R,10S)-9-[4-(2-fluorophenyl)phenyl]-10-(hydroxymethyl)-N-(4-methoxyphenyl)-1,6-diazabicyclo[6.2.0] decane-6-carboxamide] was 17800 nM; that for `COc1ccc(NC(=O)N2C/C=C\CN3[C@H](CO)[C@H](c4ccc(C#Cc5ccccc5)cc4)[C@@H]3C2)cc1` [Compound 47, (8R,9R,10S)-10-(hydroxymethyl)-N-(4-methoxyphenyl)-9-[4-(2-phenylethynyl)phenyl]-1,6-diazabicyclo[6.2.0]dec-3-ene-6-carboxamide] was 23 nM. With `COc1ccc(NC(=O)N2CCCCN3[C@@H](CN)[C@H](c4ccc(C#Cc5ccccc5)cc4)[C@@H]3C2)cc1` [Compound 48, (8R,9S,10R)-10-(aminomethyl)-N-(4-methoxyphenyl)-9-[4-(2-phenylethynyl)phenyl]-1,6-diazabicyclo[6.2.0] decane-6-carboxamide] the figure was 36 nM; with `O=C(Nc1ccccc1F)N1CCCCN2[C@H](CO)[C@H](c3ccc(C#Cc4ccccc4)cc3)[C@@H]2C1` [Compound 49, (8R,9R,10S)-N-(2-fluorophenyl)-10-(hydroxymethyl)-9-[4-(2-phenylethynyl)phenyl]-1,6-diazabicyclo[6.2.0] decane-6-carboxamide], 65 nM.
